Target: T1, FLAG-tagged full length PHD2 (Homo sapiens, UniProt Q9GZT9)
T1 construct: FLAG-tagged full length PHD2; FLAG; made in house; host or cells: baculovirus-infected Sf9 cells
Test: HIF-PHD2 time resolved fluorescence inhibition assay (HIF-1α peptide hydroxylation, VHL complex detection)
Type: biochemical
Details: 0.2 μM 2-oxoglutarate, 0.5 μM HIF-1α peptide, 2 hr at room temperature
Procedure: To each well of a 96-well plate was added […] of test compound in DMSO and 20 μl of assay buffer (50 mM Tris pH 7.4/0.01% Tween-20/0.1 mg/ml bovine serum albumin/10 μM ferrous sulfate/1 mM sodium ascorbate/20 μg/ml catalase) containing 0.15 μg/ml FLAG-tagged full length PHD2 expressed in and purified from baculovirus-infected Sf9 cells. After a […] preincubation at room temperature, the enzymatic reactions were initiated by the addition of 4 μL of substrates (final concentrations of 0.2 μM 2-oxoglutarate and 0.5 μM HIF-1α peptide biotinyl-DLDLEMLAPYIPMDDDFQL). After 2 hr at room temperature, the reactions were terminated and signals were developed by the addition of a 25 μL quench/detection mix to a final concentration of 1 mM ortho-phenanthroline, 0.1 mM EDTA, 0.5 nM anti-(His)6 LANCE reagent (Perkin-Elmer Life Sciences), 100 nM AF647-labeled streptavidin (Invitrogen), and 2 μg/ml (His)6-VHL complex (S. Tan (2001) Protein Expr. Purif. 21, 224-234). The ratio of time resolved fluorescence signals at 665 and 620 nm was determined, and percent inhibition was calculated relative to an uninhibited control sample run in parallel.

T1 sequence (Q9GZT9 whole entry): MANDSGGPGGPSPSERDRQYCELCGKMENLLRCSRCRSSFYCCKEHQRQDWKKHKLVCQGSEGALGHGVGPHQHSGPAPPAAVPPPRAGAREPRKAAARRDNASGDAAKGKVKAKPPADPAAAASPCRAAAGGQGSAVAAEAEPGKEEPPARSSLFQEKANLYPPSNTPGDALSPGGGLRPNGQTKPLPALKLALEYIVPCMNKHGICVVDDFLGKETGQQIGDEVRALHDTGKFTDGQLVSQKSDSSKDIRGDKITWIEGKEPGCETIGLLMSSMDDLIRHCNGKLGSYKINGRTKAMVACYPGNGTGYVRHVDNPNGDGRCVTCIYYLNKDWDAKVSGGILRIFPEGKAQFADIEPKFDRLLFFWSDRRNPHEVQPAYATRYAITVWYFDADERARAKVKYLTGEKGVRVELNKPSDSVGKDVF

In order of falling IC50:
1. C[C@@H](NC(=O)c1c(O)c2cccnc2n(Cc2ccc(C(F)(F)F)cc2)c1=O)C(=O)O [Example 12, N-({4-Hydroxy-2-oxo-1-[4-(trifluoromethyl)benzyl]-1,2-dihydro-1,8-naphthyridin-3-yl}carbonyl)-D-alanine]  1100 nM
2. CC[C@H](NC(=O)c1c(O)c2cccnc2n(Cc2ccc(C(F)(F)F)cc2)c1=O)C(=O)O [Example 17, (2S)-2-[({4-Hydroxy-2-oxo-1-[4-(trifluoromethyl)benzyl]-1,2-dihydro-1,8-naphthyridin-3-yl}carbonyl)amino]butanoic acid]  160 nM
3. O=C(N[C@@H](CO)C(=O)O)c1c(O)c2cccnc2n(Cc2ccc(C(F)(F)F)cc2)c1=O [Example 14, N-({1-[4-(trifluoromethyl)benzyl]-4-hydroxy-2-oxo-1,2-dihydro-1,8-naphthyridin-3-yl}carbonyl)-L-serine]  160 nM
4. CCOC(=O)Cn1c(=O)c(C(=O)NCC(=O)O)c(O)c2cccnc21 [Example 23, N-{[1-(2-Ethoxy-2-oxoethyl)-4-hydroxy-2-oxo-1,2-dihydro-1,8-naphthyridin-3-yl]carbonyl}glycine]  8.5 nM
5. C[C@H](NC(=O)c1c(O)c2cccnc2n(Cc2ccc(C(F)(F)F)cc2F)c1=O)C(=O)O [Example 39, (2S)-2-[({1-[2-Fluoro-4-(trifluoromethyl)benzyl]-4-hydroxy-2-oxo-1,2-dihydro-1,8-naphthyridin-3-yl}carbonyl)amino]propanoic acid]  8.2 nM
6. C[C@H](NC(=O)c1c(O)c2cccnc2n(Cc2nc3cc(Cl)ccc3s2)c1=O)C(=O)O [Example 35, (2S)-2-[({1-[(5-Chloro-1,3-benzothiazol-2-yl)methyl]-4-hydroxy-2-oxo-1,2-dihydro-1,8-naphthyridin-3-yl}carbonyl)amino]propanoic acid]  5.9 nM
7. C[C@H](NC(=O)c1c(O)c2cccnc2n(Cc2ccc(C(F)(F)F)nc2)c1=O)C(=O)O [Example 38, (2S)-2-{[(4-Hydroxy-2-oxo-1-{[6-(trifluoromethyl)pyridin-3-yl]methyl}-1,2-dihydro-1,8-naphthyridin-3-yl)carbonyl]amino}propanoic acid]  2.7 nM
8. C[C@H](NC(=O)c1c(O)c2cccnc2n(Cc2nc3ccccc3s2)c1=O)C(=O)O [Example 30, (2S)-2-({[1-(1,3-Benzothiazol-2-ylmethyl)-4-hydroxy-2-oxo-1,2-dihydro-1,8-naphthyridin-3-yl]carbonyl}amino)propanoic acid]  2.7 nM
9. O=C(O)CNC(=O)c1c(O)c2cccnc2n(Cc2nnc(-c3ccccc3)o2)c1=O [Example 27, N-({4-Hydroxy-2-oxo-1-[(5-phenyl-1,3,4-oxadiazol-2-yl)methyl]-1,2-dihydro-1,8-naphthyridin-3-yl}carbonyl)glycine]  2.6 nM
10. O=C(O)CNC(=O)c1c(O)c2cccnc2n(Cc2ccc(C(F)(F)F)cc2)c1=O [Example 1, N-({4-Hydroxy-2-oxo-1-[4-(trifluoromethyl)benzyl]-1,2-dihydro-1,8-naphthyridin-3-yl}carbonyl)glycine]  2.1 nM
11. CC(C)(C)c1csc(Cn2c(=O)c(C(=O)NCC(=O)O)c(O)c3cccnc32)n1 [Example 25, N-({1-[(4-tert-Butyl-1,3-thiazol-2-yl)methyl]-4-hydroxy-2-oxo-1,2-dihydro-1,8-naphthyridin-3-yl}carbonyl)glycine]  2 nM
12. Cc1ccc(Cn2c(=O)c(C(=O)NCC(=O)O)c(O)c3cccnc32)cc1 [Example 5, N-{[1-(4-Methylbenzyl)-4-hydroxy-2-oxo-1,2-dihydro-1,8-naphthyridin-3-yl]carbonyl}glycine]  1.8 nM
13. O=C(O)CNC(=O)c1c(O)c2cccnc2n(Cc2ccc(Cl)cc2)c1=O [Example 2, N-{[1-(4-Chlorobenzyl)-4-hydroxy-2-oxo-1,2-dihydro-1,8-naphthyridin-3-yl]carbonyl}glycine]  1.6 nM
14. N#Cc1ccc(Cn2c(=O)c(C(=O)NCC(=O)O)c(O)c3cccnc32)cc1 [Example 4, N-{[1-(4-Cyanobenzyl)-4-hydroxy-2-oxo-1,2-dihydro-1,8-naphthyridin-3-yl]carbonyl}glycine]  1.6 nM
15. O=C(O)CNC(=O)c1c(O)c2cccnc2n(Cc2ccc(C(F)(F)F)cc2F)c1=O [Example 6, N-{[1-(2-Fluoro-4-trifluoromethylbenzyl)-4-hydroxy-2-oxo-1,2-dihydro-1,8-naphthyridin-3-yl]carbonyl}glycine]  1.6 nM
16. O=C(O)CNC(=O)c1c(O)c2cc(Cl)cnc2n(Cc2nc3ccccc3s2)c1=O [Example 40, ({[1-(1,3-Benzothiazol-2-ylmethyl)-6-chloro-4-hydroxy-2-oxo-1,2-dihydro-1,8-naphthyridin-3-yl]carbonyl}amino)acetic acid]  1.5 nM
17. Cc1nc(Cn2c(=O)c(C(=O)NCC(=O)O)c(O)c3cccnc32)sc1C [Example 26, N-({1-[(4,5-Dimethyl-1,3-thiazol-2-yl)methyl]-4-hydroxy-2-oxo-1,2-dihydro-1,8-naphthyridin-3-yl}carbonyl)glycine]  1.3 nM
18. N#Cc1cnc2c(c1)c(O)c(C(=O)NCC(=O)O)c(=O)n2Cc1ccc(C(F)(F)F)cc1 [Example 10, N-({6-Cyano-4-hydroxy-2-oxo-1-[4-(trifluoromethyl)benzyl]-1,2-dihydro-1,8-naphthyridin-3-yl}carbonyl)glycine]  1.2 nM
19. O=C(O)CNC(=O)c1c(O)c2cccnc2n(Cc2noc(-c3ccccc3)n2)c1=O [Example 20, N-({4-Hydroxy-2-oxo-1-[(5-phenyl-1,2,4-oxadiazol-3-yl)methyl]-1,2-dihydro-1,8-naphthyridin-3-yl}carbonyl)glycine]  0.9 nM
20. O=C(O)CNC(=O)c1c(O)c2cccnc2n(Cc2ccc(C(F)(F)F)nc2)c1=O [Example 28, {[(4-Hydroxy-2-oxo-1-{[6-(trifluoromethyl)pyridin-3-yl]methyl}-1,2-dihydro-1,8 naphthyridin-3-yl)carbonyl}amino}acetic acid]  0.85 nM
21. O=C(O)CNC(=O)c1c(O)c2cccnc2n(Cc2nc(-c3ccccc3)no2)c1=O [Example 21, N-({4-Hydroxy-2-oxo-1-[(3-phenyl-1,2,4-oxadiazol-5-yl)methyl]-1,2-dihydro-1,8-naphthyridin-3-yl}carbonyl)glycine]  0.8 nM
22. O=C(O)CNC(=O)c1c(O)c2cccnc2n(Cc2nc(-c3ccccc3)cs2)c1=O [Example 22, N-({4-Hydroxy-2-oxo-1-[(4-phenyl-1,3-thiazol-2-yl)methyl]-1,2-dihydro-1,8-naphthyridin-3-yl}carbonyl)glycine]  0.8 nM
23. O=C(O)CNC(=O)c1c(O)c2cccnc2n(Cc2nc3ccccc3s2)c1=O [Example 8, N-{[1-(1,3-Benzothiazol-2-ylmethyl)-4-hydroxy-2-oxo-1,2-dihydro-1,8-naphthyridin-3-yl]carbonyl}glycine]  0.7 nM
24. O=C(O)CNC(=O)c1c(O)c2cc(Cl)cnc2n(Cc2ccc(C(F)(F)F)nc2)c1=O [Example 29, {[(6-Chloro-4-hydroxy-2-oxo-1-{[6-(trifluoromethyl)pyridin-3-yl]methyl}-1,2-dihydro-1,8 naphthyridin-3-yl)carbonyl]amino}acetic acid]  0.65 nM
25. O=C(O)CNC(=O)c1c(O)c2cccnc2n(Cc2cc(-c3ccccc3)no2)c1=O [Example 19, N-({4-Hydroxy-2-oxo-1-[(3-phenylisoxazol-5-yl)methyl]-1,2-dihydro-1,8-naphthyridin-3-yl}carbonyl)glycine]  0.4 nM

Source: patent publication US20100056563A1, “NOVEL 1.8-NAPHTHYRIDINE COMPOUNDS” (priority 2007, published 2010)
